# Source: patent US20090264415A2 (priority 2004, published 2009)
# System: peripheral blood mononuclear cells (PBMC) stimulated with allogeneic PBMC or EBV-transformed human B cells (RPMI1788)
# Assay: Mixed lymphocyte reaction (MLR) assay
# Assay type: cell-based
# Conditions: 50% suppression of the MLR, [3H]-thymidine incorporation; read-out: MLR
# Protocol: Pyrido[3,2-d]pyrimidine derivatives were first dissolved (10 mM) in dimethyl-sulfoxide (hereinafter referred as DMSO) and further diluted in culture medium before use for the following in vitro experiments. […] Some pyrido[3,2-d]pyrimidine derivatives described herein were tested in the following mixed lymphocyte reaction (MLR) assay.
# Peripheral blood mononuclear cells (hereinafter referred as PBMC) were isolated from heparinized peripheral blood by density gradient centrifugation over Lymphoprep (Nycomed, Maorstua, Norway). Allogeneic PBMC or Eppstein-Barr Virus-transformed human B cells [commercially available under the trade name RPM11788 (ATCC name CCL156)] which strongly express B7-1 and B7-2 antigens were used as stimulator cells after irradiation with 30 Gy. MLR was performed in triplicate wells. After 5 days incubation at 37° C., 1 μCi [^3H]-thymidine was added to each cup. After a further 16 hours incubation, cells were harvested and counted in a β-counter. Inhibition of proliferation by a compound described in some of the present examples was counted while using the formula: [formula] wherein cpm is the thymidine count per minute. The MLR assay is regarded by those skilled in the art as an in vitro analogue of the transplant rejection since it is based on the recognition of allogeneic major histocompatibility antigens on the stimulator leukocytes, by responding lymphocytes.
row,Structure (SMILES),IC50 [nM]
1,COc1ccc(-c2ccc3nc(Cl)nc(N4CCN(C(=O)Nc5cccc(C)c5)CC4)c3n2)cc1OC [Example 14],66
2,"COc1cc(-c2ccc3nc(N)nc(N4CCOCC4)c3n2)ccc1OC1CCCC1 [Example 98, 2-amino-4-(N-morpholino)-6-(4-cyclopentyloxy-3-methoxyphenyl)-pyrido[3,2-d]pyrimidine]",7600

# Same assay, conditions: Homo sapiens, RPMI-1788; 50% suppression of the MLR, [3H]-thymidine incorporation; read-out: MLR
row,Structure (SMILES),IC50 [nM]
1,"COc1ccc(-c2ccc3nc(N)nc(N)c3n2)cc1OC [Example 256, 2,4-diamino-6-(3,4-dimethoxyphenyl)-pyrido[3,2-d]pyrimidine]",600
2,"Nc1nc(N2CCN(C(=O)c3ccco3)CC2)c2nc(-c3ccc4c(c3)OCCO4)ccc2n1 [Example 203, 2-amino-4-[N-(2-furoyl)-piperazin-1-yl]-6-(1,4-benzo-dioxane)-pyrido[3,2-d]pyrimidine]",5700

# Same assay, conditions: Homo sapiens, RPMI-1788; MLR assay of example 319; read-out: MLR IC50
row,Structure (SMILES),IC50 [nM]
1,"Nc1nc(N2CCN(C(=O)COc3ccc(Cl)cc3)CC2)c2nc(-c3ccccc3F)ccc2n1 [Example 424, 2-amino-4-[4-(4-chlorophenoxyacetyl)piperazin-1-yl]-6-(2-fluorophenyl)pyrido-[3,2-d]pyrimidine]",110
2,"CNC(=O)N1CCN(c2nc(N)nc3ccc(-c4ccc(F)cc4)nc23)CC1 [Example 452, 2-amino-4-[4-(N-methylcarbamoyl)-piperazin-1-yl]-6-(4-fluorophenyl)-pyrido[3,2-d]pyrimidine]",400
3,"Cc1cccc(NC(=O)N2CCN(c3nc(N)nc4ccc(-c5ccccc5Cl)nc34)CC2)c1 [Example 549, 2-amino-4-[(3-methylphenylcarbamoyl)-piperazin-1-yl]-6-(2-chlorophenyl)-pyrido[3,2-d]pyrimidine]",80
4,"Cc1cccc(NC(=O)N2CCN(c3nc(-c4ccccc4)nc4ccc(-c5ccc(F)cc5)nc34)CC2)c1 [Example 533, 2-phenyl-4-[N-(3-methylphenylcarbamoyl)piperazin-1-yl]-6-(4-fluorophenyl)-pyrido[3,2-d]pyrimidine]",2600
5,"C[C@@H]1CN(C(=O)OC(C)(C)C)CCN1c1nc(N)nc2ccc(-c3ccc(F)cc3)nc12 [Example 481, (R)-4-[2-amino-6-(4-fluorophenyl)-pyrido[3,2-d]pyrimidin-4-yl]-3-methylpiperazine-1-carboxylic acid tert-butyl ester]",> 10000
6,"Cc1cccc(NC(=O)N2CCN(c3nc(CN(C)C)nc4ccc(-c5ccc(F)cc5)nc34)CC2)c1 [Example 537, 2-(N,N-dimethylamino)methyl-4-[N-(3-methylphenylcarbamoyl)piperazin-1-yl]-6-(4-fluorophenyl)-pyrido[3,2-d]pyrimidine]",3300
7,"CN(C)C(=O)N1CCN(c2nc(N)nc3ccc(-c4ccc(F)cc4)nc23)CC1 [Example 464, 2-amino-4-[4-(dimethylcarbamoyl)piperazin-1-yl]-6-(4-fluorophenyl)-pyrido[3,2-d]pyrimidine]",800
8,"Cc1cccc(NC(=O)N2CCN(c3ncnc4ccc(-c5ccc(F)cc5)nc34)CC2)c1 [Example 558, 4-[(3-methylphenylcarbamoyl)-piperazin-1-yl]-6-(4-fluorophenyl)pyrido[3,2-d]pyrimidine]",39
9,"Nc1nc(N2CCN(C(=O)CC(=O)Nc3ccc(Cl)cc3)CC2)c2nc(-c3ccc(F)cc3)ccc2n1 [Example 490, 2-amino-4-[4-(4-chlorophenylcarbamoyl-acetyl)piperazin-1-yl]-6-(4-fluorophenyl)-pyrido[3,2-d]pyrimidine]",340
10,"Cc1cccc(C)c1-c1ccc2nc(N)nc(N3CCN(C(=O)COc4ccc(Cl)cc4)CC3)c2n1 [Example 433, 2-amino-4-[4-(4-chlorophenoxyacetyl)piperazin-1-yl]-6-(2,6-dimethylphenyl)-pyrido-[3,2-d]pyrimidine]",3600
11,"Nc1nc(N2CCN(C(=O)NC34CC5CC(CC(C5)C3)C4)CC2)c2nc(-c3ccc(F)cc3)ccc2n1 [Example 453, 2-amino-4-{4-[N-(1-adamantylcarbamoyl)]-piperazin-1-yl}-6-(4-fluorophenyl)-pyrido[3,2-d]pyrimidine]",4000
12,"Cc1cccc(NC(=O)N2CCN(c3nc(C)nc4ccc(-c5ccc(F)cc5)nc34)CC2)c1 [Example 531, 2-methyl-4-[N-(3-methylphenylcarbamoyl)piperazin-1-yl]-6-(4-fluorophenyl)-pyrido[3,2-d]pyrimidine]",84
13,"CCc1ccc(-c2ccc3nc(N)nc(N4CCN(C(=O)COc5ccc(Cl)cc5)CC4)c3n2)cc1 [Example 508, 2-amino-4-[N-(4-chlorophenoxyacetyl)-piperazin-1-yl]-6-(4-ethylphenyl)-pyrido(3,2-d)pyrimidine]",12
14,"Nc1nc(N2CCN(C(=O)COc3ccc4ccccc4c3)CC2)c2nc(-c3ccc(F)cc3)ccc2n1 [Example 383, 2-amino-4-[4-(2-naphthoxyacetyl)piperazin-1-yl]-6-(4-fluorophenyl)-pyrido[3,2-d]pyrimidine]",500
15,"Nc1nc(N2CCN(C(=O)COc3ccc(Cl)cc3)CC2)c2nc(-c3cc(Cl)ccc3Cl)ccc2n1 [Example 429, 2-amino-4-[4-(4-chlorophenoxyacetyl)piperazin-1-yl]-6-(2,5-dichlorophenyl)-pyrido-[3,2-d]pyrimidine]",500
16,"CCNC(=O)N1CCN(c2nc(N)nc3ccc(-c4ccc(F)cc4)nc23)CC1 [Example 450, 2-amino-4-[4-(N-ethylcarbamoyl)-piperazin-1-yl]-6-(4-fluorophenyl)-pyrido[3,2-c]pyrimidine]",500
17,"Nc1nc(N2CCN(CC(=O)OCc3ccc(Cl)cc3)CC2)c2nc(-c3ccc(F)cc3)ccc2n1 [Example 475, {4-[2-amino-6-(4-fluorophenyl)-pyrido[3,2-d]pyrimidin-4-yl]-piperazin-1-yl}-acetic acid 4-chloro-benzyl ester]",4200
18,"Nc1nc(N2CCN(C(=O)COc3ccc(F)cc3)CC2)c2nc(-c3ccc(F)cc3)ccc2n1 [Example 387, 2-amino-4-[4-(4-fluorophenoxyacetyl)piperazin-1-yl]-6-(4-fluorophenyl)-pyrido[3,2-d]pyrimidine]",200
19,"Cc1cccc(NC(=O)N2CCN(c3ncnc4ccc(-c5ccc(F)cc5F)nc34)CC2)c1 [Example 556, 4-[(3-methylphenylcarbamoyl)-piperazin-1-yl]-6-(2,4-difluorophenyl)pyrido[3,2-d]pyrimidine]",100
20,"Cc1cccc(NC(=O)N2CCN(c3nc(NC4CCCC4)nc4ccc(-c5ccc(F)cc5)nc34)CC2)c1 [Example 571, 2-cyclopentylamino-6-(4-fluorophenyl)-4-[(3-methylphenylcarbamoyl)-piperazin-1-yl]-pyrido[3,2-d]pyrimidine]",500
21,"Nc1nc(N2CCN(C(=O)COc3ccc(Cl)cc3)CC2)c2nc(-c3ccccc3)ccc2n1 [Example 421, 2-amino-4-[4-(4-chlorophenoxyacetyl)piperazin-1-yl]-6-phenylpyrido-[3,2-d]pyrimidine]",49
22,"C[C@@H]1CN(C(=O)c2ccccc2)CCN1c1nc(N)nc2ccc(-c3ccc(F)cc3)nc12 [Example 487, (R)-2-amino-4-(4-benzoyl-2-methylpiperazin-1-yl)-6-(4-fluorophenyl)-pyrido[3,2-d]pyrimidine]",7500
23,"Nc1nc(N2CCN(C(=O)COc3ccc(Cl)cc3)CC2)c2nc(-c3ccc(F)c(Cl)c3)ccc2n1 [Example 408, 2-amino-4-[4-(4-chlorophenoxyacetyl)piperazin-1-yl]-6-(3-chloro-4-fluorophenyl)-pyrido-[3,2-d]pyrimidine]",200
